What all share (format): binding
Settings in all cases: Fc fusion protein 40 nM

One assay has as its target T1, E-selectin (Homo sapiens, UniProt P16581).
T1 construct: purchased R&D systems (Minneapolis, MN, USA)
Briefly: Surface plasmon resonance (Biacore), sulfatide-coated L1 chip, E-selectin. As to the method:
(§1) A Biacore 2000 instrument (Biacore AB, Uppsala, Sweden) was used to analyze the interaction between sulfatides and P-, L, and E-selectins, as described. Experiments were performed at room temperature using running buffer (20 mmol/L HEPES, 150 mmol/L NaCl, 1 mmol/L CaCl2, 0.005% Surfactant P20, pH 7.4). Sulfatides were immobilized on L1 sensor chips at 5 μL/min according to the manufacturer’s instructions. Binding kinetics of human fusion proteins IgG and P-, L- and E- selectins to the immobilized sulfatides were determined by injection of the fusion proteins. At the end of each injection, the sensor chips were regenerated with 100 mmol/L NaOH and equilibrated with running buffer. All curves were corrected for non-specific binding by an online baseline subtraction of ligand binding to a control flow channel. Binding kinetics were analyzed using BIAevaluation software (V2.1; Pharmacia Biosensor, Uppsala, Sweden).

For a further assay, the target named is T2, L-selectin (Homo sapiens, UniProt P14151).
T2 sequence (P14151 39-318 limits assumed): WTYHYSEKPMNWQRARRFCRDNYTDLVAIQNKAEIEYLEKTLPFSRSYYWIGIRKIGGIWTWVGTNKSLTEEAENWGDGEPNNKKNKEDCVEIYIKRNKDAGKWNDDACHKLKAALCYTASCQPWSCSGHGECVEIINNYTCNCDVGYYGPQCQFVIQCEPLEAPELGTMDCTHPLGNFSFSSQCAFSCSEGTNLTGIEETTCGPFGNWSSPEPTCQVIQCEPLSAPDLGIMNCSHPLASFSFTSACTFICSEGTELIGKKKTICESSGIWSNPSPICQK
Briefly: Surface plasmon resonance (Biacore), sulfatide-coated L1 chip, L-selectin. As to the method:
as §1
A general note: Surface plasmon resonance follows binding to a sensor surface in real time, without labels.

Another assay addresses T3, P-selectin (Homo sapiens, UniProt P16109).
T3 construct: purchased R&D systems (Minneapolis, MN, USA)
The experiment in a line: Surface plasmon resonance (Biacore), sulfatide-coated L1 chip, P-selectin. The method, then:
as §1

T1 sequence (P16581 with tags, fused parts or gaps limits assumed): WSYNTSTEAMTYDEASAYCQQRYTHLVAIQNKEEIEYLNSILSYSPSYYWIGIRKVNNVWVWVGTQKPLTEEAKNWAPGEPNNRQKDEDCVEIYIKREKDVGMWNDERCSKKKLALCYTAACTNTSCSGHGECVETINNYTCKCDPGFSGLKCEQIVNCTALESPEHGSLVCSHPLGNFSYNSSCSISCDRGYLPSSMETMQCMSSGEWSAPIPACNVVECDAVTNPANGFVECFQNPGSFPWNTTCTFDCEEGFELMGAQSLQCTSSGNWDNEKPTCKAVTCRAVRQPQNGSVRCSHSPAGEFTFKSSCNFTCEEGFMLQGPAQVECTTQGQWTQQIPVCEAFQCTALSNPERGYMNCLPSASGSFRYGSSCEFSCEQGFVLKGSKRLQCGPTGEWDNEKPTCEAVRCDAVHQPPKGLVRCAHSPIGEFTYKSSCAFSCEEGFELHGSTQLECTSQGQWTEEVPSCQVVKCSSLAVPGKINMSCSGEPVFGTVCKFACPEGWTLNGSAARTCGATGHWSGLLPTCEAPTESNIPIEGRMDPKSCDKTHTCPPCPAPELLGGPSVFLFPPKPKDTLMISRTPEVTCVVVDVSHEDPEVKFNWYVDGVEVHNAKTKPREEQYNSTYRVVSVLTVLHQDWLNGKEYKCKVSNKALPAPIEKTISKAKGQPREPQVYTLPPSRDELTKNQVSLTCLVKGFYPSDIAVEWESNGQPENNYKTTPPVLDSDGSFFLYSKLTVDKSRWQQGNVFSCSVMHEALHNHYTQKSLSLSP
T3 sequence (P16109 with tags, fused parts or gaps limits assumed): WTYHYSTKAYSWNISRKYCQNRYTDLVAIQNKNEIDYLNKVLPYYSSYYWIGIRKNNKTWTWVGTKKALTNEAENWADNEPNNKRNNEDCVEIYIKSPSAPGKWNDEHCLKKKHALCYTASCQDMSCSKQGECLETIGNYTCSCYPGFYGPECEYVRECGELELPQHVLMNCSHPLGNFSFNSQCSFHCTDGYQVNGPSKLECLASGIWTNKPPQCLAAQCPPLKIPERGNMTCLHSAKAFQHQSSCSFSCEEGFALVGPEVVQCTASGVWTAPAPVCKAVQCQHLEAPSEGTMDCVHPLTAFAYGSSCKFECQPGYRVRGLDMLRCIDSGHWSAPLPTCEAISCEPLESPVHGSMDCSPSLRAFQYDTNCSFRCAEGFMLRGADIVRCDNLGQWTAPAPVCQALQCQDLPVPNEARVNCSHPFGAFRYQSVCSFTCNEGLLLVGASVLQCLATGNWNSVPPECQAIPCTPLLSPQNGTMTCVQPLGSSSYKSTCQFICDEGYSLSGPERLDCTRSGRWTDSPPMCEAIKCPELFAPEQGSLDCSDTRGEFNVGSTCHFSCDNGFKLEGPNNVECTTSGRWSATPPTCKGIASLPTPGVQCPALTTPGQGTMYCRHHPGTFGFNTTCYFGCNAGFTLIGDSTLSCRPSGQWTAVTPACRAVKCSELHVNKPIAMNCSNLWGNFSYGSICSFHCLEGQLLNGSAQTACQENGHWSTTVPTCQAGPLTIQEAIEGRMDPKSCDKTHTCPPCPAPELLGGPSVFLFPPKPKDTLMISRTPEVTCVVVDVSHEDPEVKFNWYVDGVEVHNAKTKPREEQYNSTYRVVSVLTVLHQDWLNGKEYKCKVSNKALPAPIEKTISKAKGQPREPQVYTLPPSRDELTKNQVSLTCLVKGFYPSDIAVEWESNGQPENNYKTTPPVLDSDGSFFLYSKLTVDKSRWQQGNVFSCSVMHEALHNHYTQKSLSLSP

With “cerebroside sulfate, bovine [Sulfatides]”, the “Binding of E-selectin to sulfatide-coated sensor chip” value on E-selectin was “not E-selectin”. The “Binding of L-selectin to sulfatide-coated sensor chip” value on L-selectin is “bind”. At P-selectin, the “Binding of P-selectin to sulfatide-coated sensor chip” value is “bind”.

These data come from PMC6722823, “Peptide Antagonists for P-selectin Discriminate between Sulfatide-Dependent Platelet Aggregation and PSGL-1-Mediated Cell Adhesion” (Journal of Clinical Medicine, 2019).
